We go through one molecule from publication PMC4255672 (2014).

This experiment has as its system BPA aptamer (DNA, aptamer) CCGCCGTTGGTGTGGTGGGCCTAGGGCCGGCGGCGCACAGCTGTTATAGACGTCTCCAGC
In words: microscale thermophoresis. The note with it: 25 °C; 5 nM aptamer; BPA 310 pM to 10 μM; Hill1 fit; buffer not stated.

For the molecule `CC(C)(c1ccc(O)cc1)c1ccc(O)cc1`, the Kd is listed as ~ 100 nM.
